Patent US20210253642A1, “CALPAIN MODULATORS AND THERAPEUTIC USES THEREOF BACKGROUND” (Blade Therapeutics, Inc., priority 2018, published 2021)

Legend:
Format in all cases: biochemical
Human Cathepsin K = biological target: T1, Human Cathepsin K (Homo sapiens, UniProt P43235); assay: Cathepsin continuous fluorescence inhibition assay; details: Column E; enzyme 10 nM, substrate 1 uM, pH 5.5, 30 minutes pre-incubation with inhibitor
T1 construct: purchased
T1 sequence (P43235 115-329): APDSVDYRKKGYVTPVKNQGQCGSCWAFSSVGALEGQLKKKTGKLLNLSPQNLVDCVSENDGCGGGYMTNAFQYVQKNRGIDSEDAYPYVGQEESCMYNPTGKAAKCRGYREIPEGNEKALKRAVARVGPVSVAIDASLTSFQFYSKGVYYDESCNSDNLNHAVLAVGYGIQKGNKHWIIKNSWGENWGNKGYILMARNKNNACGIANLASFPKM
Description: (§1) Cathepsin activity and inhibition thereof was assessed by means of a continuous fluorescence assay. All assays were run in 384 well format and utilized peptide substrates that liberate fluorescence upon protease catalyzed cleavage. FLIPR plate readers (Molecular Devices Inc.) were used to monitor reactions and extract initial rates which were then fit (four parameter logistic function) to obtain IC50 values. All enzymes are human. All enzymes and reagents were obtained commercially and are summarized in Tables 1 and 2 below along with assay conditions.

Human Cathepsin L = biological target: T2, Human Cathepsin L (Homo sapiens, UniProt P07711); assay: Cathepsin continuous fluorescence inhibition assay; details: Column G; enzyme 0.025 nM, substrate 1 uM, pH 6.0, 30 minutes pre-incubation with inhibitor
T2 construct: purchased
T2 sequence (P07711 114-333): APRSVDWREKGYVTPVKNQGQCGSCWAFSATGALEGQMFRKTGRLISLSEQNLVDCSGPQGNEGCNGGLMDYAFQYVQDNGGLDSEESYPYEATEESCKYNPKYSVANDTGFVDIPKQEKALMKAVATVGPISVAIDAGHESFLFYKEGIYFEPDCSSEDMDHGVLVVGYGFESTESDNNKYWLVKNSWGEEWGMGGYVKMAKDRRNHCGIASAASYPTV
Description: as §1

Human Cathepsin S = biological target: T3, Human Cathepsin S (Homo sapiens, UniProt P25774); assay: Cathepsin continuous fluorescence inhibition assay; details: Column F; enzyme 6 nM, substrate 1 uM, pH 4.5, 30 minutes pre-incubation with inhibitor
T3 construct: purchased
T3 sequence (P25774 115-331): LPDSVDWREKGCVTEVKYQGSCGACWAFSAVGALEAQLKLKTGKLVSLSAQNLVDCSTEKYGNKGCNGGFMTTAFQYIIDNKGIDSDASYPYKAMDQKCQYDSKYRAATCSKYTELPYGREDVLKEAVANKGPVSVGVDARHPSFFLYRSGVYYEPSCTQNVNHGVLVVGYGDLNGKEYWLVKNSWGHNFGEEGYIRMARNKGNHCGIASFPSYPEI
Description: as §1

Human Cathepsin B = biological target: T4, Human Cathepsin B (Homo sapiens, UniProt P07858); assay: Cathepsin continuous fluorescence inhibition assay; details: Column D; enzyme 25 nM, substrate 1 uM, pH 5.0, 30 minutes pre-incubation with inhibitor
T4 construct: purchased
Description: as §1

Human Calpain 2/NS1 = biological target: T5, Human Calpain 2/NS1 (Homo sapiens, UniProt P17655); assay: Calpain continuous fluorescence (FRET) inhibition assay; details: Column B; SensoLyte 520 FRET substrate, pH 7.5, 25C
T5 sequence (P17655 1-700): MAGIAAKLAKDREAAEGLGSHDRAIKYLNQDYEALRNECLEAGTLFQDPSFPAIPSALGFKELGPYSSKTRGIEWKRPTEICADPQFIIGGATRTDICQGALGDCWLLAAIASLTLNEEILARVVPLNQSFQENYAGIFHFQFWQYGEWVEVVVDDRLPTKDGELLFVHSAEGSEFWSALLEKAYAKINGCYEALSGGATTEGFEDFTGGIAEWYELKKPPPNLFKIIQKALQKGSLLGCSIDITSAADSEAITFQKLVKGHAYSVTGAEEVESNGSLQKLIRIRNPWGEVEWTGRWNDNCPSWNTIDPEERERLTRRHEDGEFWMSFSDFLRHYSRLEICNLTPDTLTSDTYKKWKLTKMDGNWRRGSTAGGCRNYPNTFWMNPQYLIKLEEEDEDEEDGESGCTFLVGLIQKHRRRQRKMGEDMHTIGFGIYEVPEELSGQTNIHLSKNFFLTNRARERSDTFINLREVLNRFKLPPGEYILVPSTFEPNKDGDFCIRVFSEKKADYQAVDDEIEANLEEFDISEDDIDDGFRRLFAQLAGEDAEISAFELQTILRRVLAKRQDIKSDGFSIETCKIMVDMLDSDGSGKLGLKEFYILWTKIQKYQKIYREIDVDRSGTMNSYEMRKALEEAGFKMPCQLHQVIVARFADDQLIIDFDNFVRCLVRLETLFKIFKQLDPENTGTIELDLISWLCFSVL
T5 sequence (P04632 1-268 partner): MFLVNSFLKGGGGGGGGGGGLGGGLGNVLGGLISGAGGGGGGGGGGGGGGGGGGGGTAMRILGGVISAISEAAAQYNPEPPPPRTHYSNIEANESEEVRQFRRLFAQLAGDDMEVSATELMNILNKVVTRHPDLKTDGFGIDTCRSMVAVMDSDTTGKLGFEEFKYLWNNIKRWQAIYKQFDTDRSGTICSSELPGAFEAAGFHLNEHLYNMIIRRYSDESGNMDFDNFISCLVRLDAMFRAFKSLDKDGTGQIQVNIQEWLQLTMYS
Description: (§2) Calpain 1, 2, and 9 activity and inhibition thereof was assessed by means of a continuous fluorescence assay. The SensoLyte 520 Calpain substrate (Anaspec Inc.) was optimized for detecting calpain activity. This substrate contains an internally quenched 5-FAM/QXLTM 520 FRET pair. Calpains 1, 2, and 9 cleave the FRET substrate into two separate fragments resulting in an increase of 5-FAM fluorescence that is proportional to calpain activity
(§3) Assays were typically setup in black 384-well plates using automated liquid handling as follows. Calpain assay base buffer typically contains 50 mM Tris, pH 7.5, 100 mM NaCl and 1 mM DTT. Inhibitors were serially diluted in DMSO and used to setup 2× mixtures with calpains in the aforementioned buffer. After incubation at ambient temperature (25C), the reaction was initiated by adding a 2× mix of the fluorescent peptide substrate and CaCl2) (required for in-situ calpain activation) in the same buffer. Reaction progress curve data were typically collected for 10 min using excitation/emission wavelengths of 490 nm/520 nm on SpectraMax i3x or the FLIPR-Tetra plate readers (Molecular Devices Inc.). Reaction rates were calculated from progress curve slopes typically over 1-5 min. Dose response curves (rate vs. log inhibitor concentration) were typically fit to a 4-parameter logistic function to extract IC50 values.

Human Calpain 9/NS1 = biological target: T6, Human Calpain 9/NS1 (Homo sapiens, UniProt O14815); assay: as above; details: Column C; SensoLyte 520 FRET substrate, pH 7.5, 25C
T6 sequence (O14815 1-690): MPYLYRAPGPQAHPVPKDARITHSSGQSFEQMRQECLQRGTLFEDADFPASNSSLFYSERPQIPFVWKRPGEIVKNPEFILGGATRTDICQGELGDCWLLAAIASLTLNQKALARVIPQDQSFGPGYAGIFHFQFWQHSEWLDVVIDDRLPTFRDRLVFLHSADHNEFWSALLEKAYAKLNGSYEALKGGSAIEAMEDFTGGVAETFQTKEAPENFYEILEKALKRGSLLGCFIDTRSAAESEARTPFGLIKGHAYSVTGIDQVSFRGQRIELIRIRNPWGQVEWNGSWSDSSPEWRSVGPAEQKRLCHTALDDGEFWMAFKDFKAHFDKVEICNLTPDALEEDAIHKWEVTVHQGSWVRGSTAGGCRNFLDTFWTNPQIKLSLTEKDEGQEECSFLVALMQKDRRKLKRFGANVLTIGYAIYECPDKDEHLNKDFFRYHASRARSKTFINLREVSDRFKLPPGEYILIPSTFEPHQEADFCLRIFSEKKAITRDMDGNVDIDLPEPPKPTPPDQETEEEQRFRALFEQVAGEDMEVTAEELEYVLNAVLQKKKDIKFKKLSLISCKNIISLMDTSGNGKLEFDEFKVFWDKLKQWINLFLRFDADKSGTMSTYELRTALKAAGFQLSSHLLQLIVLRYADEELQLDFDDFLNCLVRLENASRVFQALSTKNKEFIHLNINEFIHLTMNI
T6 sequence (P04632 1-268 partner): T5 sequence (P04632 1-268 partner)
Description: as §2, §3

Human Calpain 1/NS1 = biological target: T7, Human Calpain 1/NS1 (Homo sapiens, UniProt P07384); assay: as above; details: Column A; SensoLyte 520 FRET substrate, pH 7.5, 25C
T7 sequence (P07384 1-714): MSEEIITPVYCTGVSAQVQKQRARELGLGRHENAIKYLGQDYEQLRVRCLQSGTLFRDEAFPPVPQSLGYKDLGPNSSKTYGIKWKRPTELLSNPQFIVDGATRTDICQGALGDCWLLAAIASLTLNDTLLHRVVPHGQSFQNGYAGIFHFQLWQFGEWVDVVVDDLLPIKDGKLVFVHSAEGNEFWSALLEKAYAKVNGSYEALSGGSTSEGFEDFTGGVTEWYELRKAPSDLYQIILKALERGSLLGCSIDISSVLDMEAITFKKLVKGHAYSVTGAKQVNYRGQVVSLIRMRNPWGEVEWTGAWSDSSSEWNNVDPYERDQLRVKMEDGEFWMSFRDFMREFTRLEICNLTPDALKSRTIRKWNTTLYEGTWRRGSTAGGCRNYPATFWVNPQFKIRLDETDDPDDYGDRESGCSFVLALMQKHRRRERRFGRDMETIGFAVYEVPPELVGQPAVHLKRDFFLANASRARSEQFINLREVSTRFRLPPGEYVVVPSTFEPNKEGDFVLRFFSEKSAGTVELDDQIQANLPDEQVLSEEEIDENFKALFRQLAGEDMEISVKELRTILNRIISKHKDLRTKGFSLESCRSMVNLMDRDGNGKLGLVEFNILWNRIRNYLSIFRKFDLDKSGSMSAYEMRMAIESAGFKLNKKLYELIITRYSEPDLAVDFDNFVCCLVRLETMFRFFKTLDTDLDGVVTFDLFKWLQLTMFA
T7 sequence (P04632 1-268 partner): T5 sequence (P04632 1-268 partner)
Description: as §2, §3

Row | Compound | IC50 (Human Cathepsin K) [µM] | IC50 (Human Cathepsin L) [µM] | IC50 (Human Cathepsin S) [µM] | IC50 (Human Cathepsin B) [µM] | IC50 (Human Calpain 2/NS1) [µM] | IC50 (Human Calpain 9/NS1) [µM] | IC50 (Human Calpain 1/NS1) [µM]
1 | CC(C)[C@@H]1NC(=O)/C=C/[C@@H](NC(=O)CNC(=O)[C@H](Cc2ccc(O)cc2)NC(=O)OC(C)(C)C)COC(=O)[C@H](Cc2ccc(O)cc2)NC1=O [Compound 8, tert-butyl ((s)-1-((2-(((3S,6S,11R,E)-3-(4-hydroxybenzyl)-6-isopropyl-2,5,8-trioxo-1-oxa-4,7-diazacyclododec-9-en-11-yl)amino)-2-oxoethyl)amino)-3-(4-hydroxyphenyl)-1-oxopropan-2-yl)carbamate] | < 3 | < 3 | < 3 | < 3 | > 10 | > 10 | > 10
2 | CC(C)[C@@H]1NC(=O)/C=C/[C@@H](NC(=O)[C@@H](NC(=O)OCc2ccccc2)C(C)C)COC(=O)[C@H](Cc2ccc(O)cc2)NC1=O [Compound 9, Benzyl ((s)-1-(((3S,6S,11R,E)-3-(4-hydroxybenzyl)-6-isopropyl-2,5,8-trioxo-1-oxa-4,7-diazacyclododec-9-en-11-yl)amino)-3-methyl-1-oxobutan-2-yl)carbamate] | < 3 | < 3 | < 3 | < 3 | < 3 | > 10 | 3 to 10
3 | CCCCCC/C=C\CC(=O)NCC(=O)N[C@H](C(=O)N[C@@H]1/C=C/C(=O)N[C@@H](C(C)C)C(=O)N[C@@H](Cc2ccc(O)cc2)C(=O)OC1)C(C)C [Compound 10, (Z)—N-(2-(((S)-1-(((3S,6S,11R,E)-3-(4-hydroxybenzyl)-6-isopropyl-2,5,8-trioxo-1-oxa-4,7-diazacyclododec-9-en-11-yl)amino)-3-methyl-1-oxobutan-2-yl)amino)-2-oxoethyl)dec-3-enamide] | < 3 | < 3 | < 3 | < 3 | < 3 | > 10 | < 3
4 | CCCCCC/C=C\CC(=O)N[C@@H](Cc1ccc(O)cc1)C(=O)N[C@H](C(=O)N[C@@H]1/C=C/C(=O)N[C@@H](C(C)C)C(=O)N[C@@H](Cc2ccc(OC)cc2)C(=O)OC1)C(C)C [Compound 11, (Z)—N—((S)-3-(4-hydroxyphenyl)-1-(((S)-1-(((3S,6S,11R,E)-6-isopropyl-3-(4-methoxybenzyl)-2,5,8-trioxo-1-oxa-4,7-diazacyclododec-9-en-11-yl)amino)-3-methyl-1-oxobutan-2-yl)amino)-1-oxopropan-2-yl)dec-3-enamide] | < 3 | < 3 | < 3 | < 3 | < 3 | > 10 | < 3
5 | CC(C)C[C@H](NC(=O)OC(C)(C)C)C(=O)N[C@@H]1/C=C/C(=O)N[C@@H](C(C)C)C(=O)N[C@@H](Cc2ccc(O)cc2)C(=O)OC1 [Compound 12, tert-butyl ((S)-1-(((3S,6S,11R,E)-3-(4-hydroxybenzyl)-6-isopropyl-2,5,8-trioxo-1-oxa-4,7-diazacyclododec-9-en-11-yl)amino)-4-methyl-1-oxopentan-2-yl)carbamate] | < 3 | < 3 | < 3 | < 3 | < 3 | > 10 | < 3
6 | CC(C)[C@@H]1NC(=O)/C=C/[C@@H](NC(=O)[C@H](C)NC(=O)OC(C)(C)C)COC(=O)[C@H](Cc2ccc(O)cc2)NC1=O [Compound 13, tert-butyl ((s)-1-(((3S,6S,11R,E)-3-(4-hydroxybenzyl)-6-isopropyl-2,5,8-trioxo-1-oxa-4,7-diazacyclododec-9-en-11-yl)amino)-1-oxopropan-2-yl)carbamate] | < 3 | < 3 | < 3 | < 3 | > 10 | > 10 | > 10
7 | CC(C)[C@@H]1NC(=O)/C=C/[C@@H](NC(=O)[C@H](Cc2ccccc2)NC(=O)OC(C)(C)C)COC(=O)[C@H](Cc2ccc(O)cc2)NC1=O [Compound 14, tert-butyl ((s)-1-(((3S,6S,11R,E)-3-(4-hydroxybenzyl)-6-isopropyl-2,5,8-trioxo-1-oxa-4,7-diazacyclododec-9-en-11-yl)amino)-1-oxo-3-phenylpropan-2-yl)carbamate] | < 3 | < 3 | < 3 | 3 to 10 | > 10 | > 10 | > 10
